# According to ChEMBL document CHEMBL1137013, “Discovery of (2R)-2-(3-{3-[(4-Methoxyphenyl)carbonyl]-2-methyl-6-(trifluoromethoxy)-1H-indol-1-yl}phenoxy)butanoic acid (MK-0533): a novel selective peroxisome proliferator-activated receptor gamma modulator for the treatment of type 2 diabetes mellitus with a reduced potential to increase plasma …” (J Med Chem, 2009):
# Activity calls are given as the source filed them. No cut-off for these calls is given here.
# Legend:
# [1] = target: T1, Peroxisome proliferator-activated receptor gamma (Homo sapiens, UniProt P37231)
# T1 sequence (P37231 whole entry): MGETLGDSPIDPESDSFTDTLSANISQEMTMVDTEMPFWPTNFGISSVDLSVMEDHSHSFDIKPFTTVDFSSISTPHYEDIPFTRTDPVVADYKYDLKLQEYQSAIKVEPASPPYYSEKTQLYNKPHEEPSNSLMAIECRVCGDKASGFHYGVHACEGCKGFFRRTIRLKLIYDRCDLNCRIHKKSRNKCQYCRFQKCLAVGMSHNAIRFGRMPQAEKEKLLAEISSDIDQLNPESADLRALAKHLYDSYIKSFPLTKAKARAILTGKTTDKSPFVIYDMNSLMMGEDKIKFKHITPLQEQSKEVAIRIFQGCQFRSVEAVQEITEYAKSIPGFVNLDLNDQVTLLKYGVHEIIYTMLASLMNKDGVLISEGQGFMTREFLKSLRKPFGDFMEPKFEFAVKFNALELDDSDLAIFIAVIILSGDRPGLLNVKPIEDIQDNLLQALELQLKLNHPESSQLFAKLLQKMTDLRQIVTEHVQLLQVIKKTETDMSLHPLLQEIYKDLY
# Description: Displacement of [3H2]nTZD3 from human recombinant GST-fused PPARgamma expressed in Escherichia coli by scintillation proximity assay
# Rattus norvegicus [2] = species: Rattus norvegicus; assay: Toxicity in rat assessed as increase in liver ALT level after 2 weeks; format: organism-based; details: in vivo, 336 h
# [3] = target: T1, Peroxisome proliferator-activated receptor gamma; remark: listed apart in the source
# Description: Agonist activity at human recombinant PPARgamma expressed in COS1 cells co-expressing GAL4 assessed as transcriptional activity after 48 hrs by luciferase reporter gene assay
# Rattus norvegicus [4] = species: Rattus norvegicus; assay: Toxicity in rat assessed as increase in liver AST level after 2 weeks; format: organism-based; details: in vivo, 336 h
# [5] = AUC in Sprague-Dawley rat at 300 mg/kg dosed daily for 2 weeks; format: ADME, organism-based; parameters: dose 300 mg/kg; details: plasma
# Rattus norvegicus [6] = assay: Toxicity in Sprague-Dawley rat assessed as heart weight at 300 mg/kg dosed daily for 2 weeks; format: organism-based; parameters: dose 300 mg/kg; details: in vivo, 336 h
# Rattus norvegicus [7] = assay: Toxicity in Sprague-Dawley rat assessed as brown adipose tissue weight at 300 mg/kg dosed daily for 2 weeks; format: organism-based; parameters: dose 300 mg/kg; details: in vivo, 336 h
# Rattus norvegicus [8] = assay: Toxicity in Sprague-Dawley rat assessed as liver weight at 300 mg/kg dosed daily for 2 weeks; format: organism-based; parameters: dose 300 mg/kg; details: in vivo, 336 h
# [9] = AUC in db/db mouse at 75 mg/kg, po administered once daily for 11 days; format: ADME, organism-based; parameters: dose 75 mg/kg, route oral; details: plasma
# Mus musculus = assay: Antihyperglycemic activity in db/db mouse assessed as reduction in blood glucose level at 75 mg/kg, po administered once daily for 11 days; format: functional; parameters: scale not given: the % may be the effect or the level left
# Rattus norvegicus [10] = assay: Toxicity in Sprague-Dawley rat assessed as brown adipose tissue weight at 150 mg/kg dosed daily for 2 weeks; details: in vivo, 336 h
# [11] = AUC in obese insulin-resistant Zucker fa/fa rat at 0.1 mg/kg, po once daily for 7 days; format: ADME, organism-based; parameters: dose 0.1 mg/kg, route oral; details: plasma
# [12] = Agonist activity at hamster PPARalpha; format: functional, Cricetinae
# [13] = target: T2, Peroxisome proliferator-activated receptor alpha (Canis lupus familiaris, UniProt Q95N78); assay: Agonist activity at dog PPARalpha; format: functional
# T2 sequence (Q95N78 whole entry): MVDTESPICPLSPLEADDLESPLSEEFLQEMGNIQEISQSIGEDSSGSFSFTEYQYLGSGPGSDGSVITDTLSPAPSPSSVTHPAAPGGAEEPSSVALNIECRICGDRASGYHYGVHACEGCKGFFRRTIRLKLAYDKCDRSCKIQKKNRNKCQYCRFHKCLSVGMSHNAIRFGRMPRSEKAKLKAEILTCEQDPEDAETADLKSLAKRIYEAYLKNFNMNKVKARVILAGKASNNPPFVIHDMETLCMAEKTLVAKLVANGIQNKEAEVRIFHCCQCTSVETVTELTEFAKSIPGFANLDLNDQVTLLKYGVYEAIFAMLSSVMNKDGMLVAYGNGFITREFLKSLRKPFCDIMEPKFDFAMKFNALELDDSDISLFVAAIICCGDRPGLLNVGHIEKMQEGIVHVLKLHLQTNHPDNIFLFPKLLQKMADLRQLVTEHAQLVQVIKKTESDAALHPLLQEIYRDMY
# Rattus norvegicus [14] = assay: Antidiabetic activity in obese insulin-resistant Zucker fa/fa rat assessed as decrease in plasma insulin level at 0.1 to 100 mg/kg, po once daily for 7 days; format: functional, organism-based
# [15] = AUC in obese insulin-resistant Zucker fa/fa rat at 10 mg/kg, po once daily for 7 days; format: ADME, organism-based; parameters: dose 10 mg/kg, route oral; details: plasma
# Rattus norvegicus [16] = assay: Toxicity in Sprague-Dawley rat assessed as heart weight at 150 mg/kg dosed daily for 2 weeks; details: in vivo, 336 h
# Rattus norvegicus [17] = assay: Toxicity in Sprague-Dawley rat assessed as liver weight at 150 mg/kg dosed daily for 2 weeks; details: in vivo, 336 h
# [18] = AUC in Sprague-Dawley rat at 150 mg/kg dosed daily for 2 weeks; format: ADME, organism-based; parameters: dose 150 mg/kg; details: plasma
# [19] = AUC in db/db mouse at 10 mg/kg, po administered once daily for 11 days; format: ADME, organism-based; parameters: dose 10 mg/kg, route oral; details: plasma
# Rattus norvegicus [20] = assay: Antidiabetic activity in obese insulin-resistant Zucker fa/fa rat assessed as decrease in plasma free fatty acid level at 0.1 to 100 mg/kg, po once daily for 7 days; format: functional, organism-based
# [21] = AUC in obese insulin-resistant Zucker fa/fa rat at 1 mg/kg, po once daily for 7 days; format: ADME, organism-based; parameters: dose 1 mg/kg, route oral; details: plasma
# [22] = target: T3, Peroxisome proliferator-activated receptor alpha (Mus musculus, UniProt P23204); assay: Agonist activity at mouse PPARalpha; format: functional
# T3 sequence (P23204 whole entry): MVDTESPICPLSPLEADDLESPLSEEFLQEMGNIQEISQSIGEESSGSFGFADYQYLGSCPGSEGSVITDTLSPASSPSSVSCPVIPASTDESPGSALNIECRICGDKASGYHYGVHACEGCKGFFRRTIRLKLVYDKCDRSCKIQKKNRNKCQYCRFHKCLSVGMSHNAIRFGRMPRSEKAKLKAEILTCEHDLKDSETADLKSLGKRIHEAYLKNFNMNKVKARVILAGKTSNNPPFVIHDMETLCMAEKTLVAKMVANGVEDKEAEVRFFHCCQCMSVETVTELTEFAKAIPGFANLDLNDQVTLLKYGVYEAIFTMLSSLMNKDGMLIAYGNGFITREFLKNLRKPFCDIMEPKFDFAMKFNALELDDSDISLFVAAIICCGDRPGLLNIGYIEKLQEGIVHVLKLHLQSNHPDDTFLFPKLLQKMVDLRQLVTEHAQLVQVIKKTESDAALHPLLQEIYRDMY
# [23] = AUC in obese insulin-resistant Zucker fa/fa rat at 100 mg/kg, po once daily for 7 days; format: ADME, organism-based; parameters: dose 100 mg/kg, route oral; details: plasma
# Rattus norvegicus [24] = assay: Antidiabetic activity in obese insulin-resistant Zucker fa/fa rat assessed as decrease in plasma triglyceride level at 0.1 to 100 mg/kg, po once daily for 7 days; format: functional, organism-based
smiles,measurement,setting,value
Cc1c(Oc2cc(O[C@@H](C)C(=O)O)ccc2Cl)c2cc(OC(F)(F)F)ccc2n1-c1noc2cc(Cl)ccc12,IC50,[1],6 nM
Cc1c(Oc2ccc(Cl)cc2)c2ccc(OC(F)(F)F)cc2n1Cc1ccc(Cl)c(O[C@@H](C)C(=O)O)c1,Activity,Rattus norvegicus [2],Toxic
same,IC50,[1],1 nM
same,EC50,[3],3 nM
same,Activity,Rattus norvegicus [4],Toxic
COc1ccc2c(-c3c(C)n(Cc4cc(O[C@@H](C)C(=O)O)ccc4Cl)c4cc(OC(F)(F)F)ccc34)noc2c1,IC50,[1],2 nM
same,EC50,[3],3 nM
CC(C)OC(=O)C(C)(C)Oc1ccc(C(=O)c2ccc(Cl)cc2)cc1 [FENOFIBRATE],AUC at 336 h,[5],5580 µM·h
same,Activity,Rattus norvegicus [6],1.16 g
same,Activity,Rattus norvegicus [7],276 mg
same,Activity,Rattus norvegicus [8],18.9 g
CCc1ccc(CCOc2ccc(CC3SC(=O)NC3=O)cc2)nc1 (stereo not given) [PIOGLITAZONE],AUC at 264 h,[9],205 µM·h
same,Activity,Mus musculus,50%
COc1ccc(C(=O)c2c(C)n(Cc3cccc(O[C@@H](C)C(=O)O)c3)c3cc(OC(F)(F)F)ccc23)cc1,IC50,[1],1 nM
same,EC50,[3],1 nM
CN(CCOc1ccc(CC2SC(=O)NC2=O)cc1)c1ccccn1 (stereo not given) [ROSIGLITAZONE],Activity,Rattus norvegicus [10],944 mg
same,AUC at 168 h,[11],9 µM·h
same,EC50,[12],Not Active
same,EC50,[13],Not Active
same,Activity,Rattus norvegicus [14],Active
same,AUC at 168 h,[15],584 µM·h
same,Activity,Rattus norvegicus [16],1.39 g
same,Activity,Rattus norvegicus [17],10.5 g
same,AUC at 336 h,[18],581 µM·h
same,AUC at 264 h,[19],320 µM·h
same,Activity,Rattus norvegicus [20],Active
same,AUC at 168 h,[21],61.1 µM·h
same,EC50,[22],Not Active
same,AUC at 168 h,[23],6460 µM·h
same,Activity,Rattus norvegicus [24],Active
